# Tests used:
# [1] = test system: BEL7405; assay: Cell proliferation assay; format: cell-based, Homo sapiens; details: BEL7405, liver, hepatocellular carcinoma, 72 hours
# Summary of the method: (§1)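 4000 cells/well, overnight 37°C/5% CO2, then compound. Readout: imaged DAPI nuclear counts (4% formaldehyde fix, 0.2% Triton X-100 perm, 1 μg/mL DAPI) or CellTiter-Glo luminescence.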
# [2] = test system: NCI-H520; assay: Cell proliferation assay; format: cell-based, Homo sapiens; details: NCI-H520, lung carcinoma, 72 hours
# Summary of the method: as §1
# [3] = test system: BN2289; assay: Subcutaneous BN2289 glioblastoma xenograft; format: in vivo, BALB/c nude mice; details: 28 days, measured day 21
# Method: (§2) The efficacy of GLR2007 was evaluated in human GBM and breast cancer orthotopic cell-line-derived xenografts in NOD/SCID mice (Shanghai Lingchang Biotechnology Co. Ltd, Shanghai, China) and BALB/c nude mice (Shanghai Sino-British SIPPR/BK Laboratory Animal Co. Ltd, Shanghai, China), and human lung, colorectal, and liver cancer subcutaneous cell-line-derived xenografts in BALB/c nude mice (Nanjing University National Resource Center, Nanjing, China, or Beijing Anikeeper Biotech Co., Beijing, China). Mice were maintained in humidity- and temperature-controlled conditions with food and water available ad libitum. For subcutaneous models, female BALB/c nude mice were inoculated at 4–8 weeks old with 3×10^6–1×10^7 tumor cells (see Table 1 for xenograft model cell types) in the right flank for tumor development. Randomization was performed when the mean tumor volume reached 118–171 mm^3.
# [4] = test system: MCF-7 tumor cells; assay: Orthotopic MCF-7 breast cancer xenograft; format: in vivo, NOD/SCID mice
# Method: as §2, with “libitum.” for “libitum. For subcutaneous models, female BALB/c nude mice were inoculated at 4–8 weeks old with 3×10^6–1×10^7 tumor cells (see Table 1 for xenograft model cell types) in the right flank for tumor development. Randomization was performed when the mean tumor volume reached 118–171 mm^3.”
# In two breast cancer orthotopic xenograft models, female NOD/SCID mice were subcutaneously implanted with an estrogen pellet (17β-estradiol; Innovative Research of America, Sarasota, FL, USA) one day before tumor inoculation. Mice were inoculated at 6–7 weeks old with 2×10^7 MCF-7 tumor cells plus Matrigel in a 1:1 ratio in PBS at a mammary fat pad or in the right flank. Randomization was performed when the mean tumor volume reached 135–138 mm^3.
# [5] = test system: LI1088; assay: Subcutaneous LI1088 liver cancer xenograft; format: in vivo, BALB/c nude mice; details: 25 mg/kg daily oral, 28 days, measured day 25
# Method: as §2
# [6] = test system: U87-MG; parameters: method as in PMID 26149830; details: orthotopic U87-MG GBM rat xenografts; cited from earlier work
# [7] = mouse, in vivo, po, 30 mg/kg; cited from earlier work
# [8] = target: T1, CDK6–cyclin D1 (Homo sapiens, UniProt Q00534); assay: LANCE Ultra TR-FRET enzymatic profiling assay; format: biochemical
# T1 construct: purchased Invitrogen
# T1 sequence (Q00534 whole entry): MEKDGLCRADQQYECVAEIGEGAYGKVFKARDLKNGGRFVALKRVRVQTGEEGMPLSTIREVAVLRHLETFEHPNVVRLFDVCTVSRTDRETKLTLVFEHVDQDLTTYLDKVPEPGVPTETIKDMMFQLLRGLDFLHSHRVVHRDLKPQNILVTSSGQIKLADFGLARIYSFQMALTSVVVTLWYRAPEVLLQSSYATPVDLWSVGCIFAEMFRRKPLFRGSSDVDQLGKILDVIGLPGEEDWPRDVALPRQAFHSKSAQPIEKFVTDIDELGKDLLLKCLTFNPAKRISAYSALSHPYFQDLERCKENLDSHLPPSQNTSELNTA
# T1 sequence (P24385 whole entry partner): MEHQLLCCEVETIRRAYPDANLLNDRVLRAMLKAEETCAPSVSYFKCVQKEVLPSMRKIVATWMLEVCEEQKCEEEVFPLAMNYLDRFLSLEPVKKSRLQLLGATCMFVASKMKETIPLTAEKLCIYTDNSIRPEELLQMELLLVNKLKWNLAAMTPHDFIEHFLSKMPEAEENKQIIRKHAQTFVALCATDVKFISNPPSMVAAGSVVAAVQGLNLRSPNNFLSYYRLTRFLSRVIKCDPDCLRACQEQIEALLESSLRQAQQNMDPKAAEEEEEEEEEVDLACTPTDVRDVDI
# Method: Results were calculated as half-maximal inhibitory concentration (IC50) and inhibition constant (K i).
# [9] = test system: Colo320DM; assay: Cell proliferation assay; format: cell-based, Homo sapiens; details: colon carcinoma, 72 hours
# Summary of the method: as §1
# [10] = test system: PLC/PRF/5; assay: Cell proliferation assay; format: cell-based, Homo sapiens; details: PLC/PRF/5, liver, hepatocellular carcinoma, 72 hours
# Summary of the method: as §1
# [11] = test system: CT26.WT; assay: Cell proliferation assay; format: cell-based, Mus musculus; details: colorectal carcinoma, 72 hours
# Method: (§3) To quantify cell proliferation, either the nuclei of live cells were counted following staining with 4’,6-diamidino-2-phenylindole (DAPI; Sigma-Aldrich, Burlington, MA, USA), or metabolically active cells were detected using a CellTiter-Glo assay (Promega Corporation, Madison, WI, USA). Cells from a range of human and mammalian tumor cell lines (American Type Culture Collection, Manassas, VA, USA) were seeded at 4000 cells per well in 100 μL of culture medium in a 96-well plate and incubated overnight at 37°C with 5% CO2. […] In the DAPI staining method, cells were washed using 1× phosphate-buffered saline (PBS; Gibco Thermo Fisher Scientific, Waltham, MA, USA), fixed with 4% formaldehyde, permeabilized with 0.2% Triton X-100 (Sigma-Aldrich), washed again, and stained with 1 μg/mL DAPI to visualize cell nuclei. Cells were washed with 1× PBS three times, and 100 μL 1× PBS was added to each well. Plates were scanned using an IN Cell Analyzer 2200 (GE Healthcare Life Sciences, Chicago, IL, USA) and the number of cells per well was recorded. In the CellTiter-Glo assay, 60 μL of CellTiter-Glo luminescent solution was added to each well after incubation with the test compounds, and the assay plate was scanned using a Tecan Infinite M1000 PRO microplate reader (Tecan Group AG, Männedorf, Switzerland) to record luminescent signals.
# [12] = test system: BRL; assay: Cell proliferation assay; format: cell-based, Rattus norvegicus; details: liver, normal, 72 hours
# Method: as §3
# [13] = test system: P-glycoprotein; details: cited from earlier work
# [14] = test system: U87-MG; details: cell line U87-MG; cited from earlier work
# [15] = 25 mg/kg daily oral, 21 days, measured day 21, 8 mice
# [16] = 25 mg/kg daily oral, 28 days, measured day 25, 10 mice
smiles,measurement,setting,value
"CCN1CCN(Cc2ccc(Nc3ncc(F)c(-c4cc(F)c5nc(C)n(C(C)C)c5c4)n3)nc2)CC1 [Abemaciclib, abemaciclib, reference compound]",IC50,[1]; Homo sapiens,2140 nM
same,IC50,[2]; Homo sapiens,364 nM
same,TGI (%),[3]; 25 mg/kg daily oral,24.9%
same,TGI (%),[4]; [15],33.0%
same,TGI (%),[4]; [16],48.6%
same,TGI (%),[5],22.4%
same,Increase in survival time compared to vehicle control,[6],37.4%
same,"Kp,uu",[7],0.03
CC1=Nc2c(F)cc(-c3nc(Nc4ccc(C5CCN(C)CC5)cn4)ncc3F)cc2C12CCCC2 [GLR2007],Ki,[8]; CDK6/CyD1,< 0.08 nM
same,IC50,"[8]; CDK6/CyD1, 11 concentrations in duplicates",0.53 nM
same,IC50,[1],1150 nM
same,IC50,[9],1140 nM
same,IC50,[2],241 nM
same,IC50,[10],302 nM
same,IC50,[11],2020 nM
same,IC50,[12],2120 nM
same,TGI (%),[3]; 5 mg/kg daily oral,4.9%
same,TGI (%),[3]; 25 mg/kg daily oral,39.4%
same,TGI (%),[3]; 50 mg/kg daily oral,56.4%
same,TGI (%),"[4]; 10 mg/kg daily oral, 21 days, measured day 21, 8 mice",43.5%
same,TGI (%),[4]; [15],37.4%
same,TGI (%),[4]; [16],61.4%
same,TGI (%),"[4]; 50 mg/kg daily oral, 21 days, measured day 21, 8 mice",49.6%
same,TGI (%),[5],57.7%
same,Substrate of efflux transporter P-glycoprotein,[13],not a substrate
same,Cell cycle effect,[14],induce G1 arrest

# — publication PMC9403987 (Frontiers in Oncology, 2022)
